{"source": "patent US6558900B2", "about": "“Regulation of apoptosis and in vitro model for studies thereof” (Emory University, priority 1996, dated 2003)", "key": {"[1]": {"system": "CPP32", "test": "Reconstitution of dATP-dependent CPP32 activation in HeLa S-100 immunodepleted of cytochrome c", "format": "biochemical, human", "description": "(§1) Cytochrome c present in the HeLa cell S-100 was immunodepleted as described in the Example 10. In FIG. 7A, 10 μl aliquots of HeLa S-100 (50 μg) (lanes 1 and 2), or 10 μl aliquots of HeLa S-100 immunodepleted of cytochrome c (lanes 3 and 4), or 10 μl of HeLa S-100 immunodepleted of cytochrome c supplemented with 0.2 μg Apaf-2 purified through the Mono S column (H) (lanes 5 and 6), bovine heart cytochrome c (B) (lanes 7 and 8), or rat liver cytochrome c (R) (lanes 9 and 10), were incubated with aliquots of 3 μl in vitro translated, ^35S-labeled CPP32 in the absence (lanes 1, 3, 5, 7, 9) or presence (lanes 2, 4, 6, 8, 10) of 1 mM dATP at 30° C. for 1 hr in a final reaction volume of 20 μl of buffer A. Samples were subjected to SDS-PAGE and transferred to a nitrocellulose filter which were then exposed to film for 16 hr at room temperature. In FIG. 7B, HeLa S-100 (50 μg) immunodepleted of cytochrome c were reconstituted with the indicated amount of Apaf-2 (purified through Mono S column step) in a CPP32 cleavage reaction as described in FIG. 7A. The cleaved products (p20) were quantified in a Fuji-1000 phosphorimager machine and plotted in comparison with that generated by HeLa S-100. In FIG. 7C, aliquots of 50 μl of HeLa S-100 (250 μg) (lanes 1 and 2), or 50 μl of HeLa S-100 immunodepleted of cytochrome c (lanes 3 and 4), or 50 μl of HeLa S-100 immunodepleted of cytochrome c supplemented with 1 μg apaf-2 purified through the Mono S column (H) (lanes 5 and 6), bovine heart cytochrome c (B) (lanes 7 and 8), or rat liver cytochrome c (R) (lanes 9 and 10), were incubated with aliquots of 6 μl hamster liver nuclei in the absence (lanes 1, 3, 5, 7, 9) or presence (lanes 2, 4, 6, 8, 10) of 1 mM dATP at 37° C. for 2 hr in a final reaction volume of 60 μl. The DNA were isolated as described in the Examples, analyzed on 2% agarose gel electrophoresis, and the DNA was visualized by ethidium bromide staining. In FIG. 7D, DNA fragmentation assays were carried out as in FIG. 7C using HeLa S-100 immunodepleted of cytochrome c alone (a,b) or supplemented with Apaf-2 purified through Mono S column step (c,d) in the absence (a,c) or presence of 1 mM dATP (b,d). After 2 hr incubation at 37° C., an aliquot of each reaction (30 μl) was stained with 4′,6′-diamidino-2-phenylindole (DAPI), and observed under a fluorescence microscope with a UV-2A combination filter.\nTo rule out the possibility that the Apaf-2 activity is due to a minor contaminating protein that co-purified with cytochrome c, an immunodepletion experiment was carried out using a monoclonal antibody against rat cytochrome c. This monoclonal antibody cross-reacts with purified Apaf-2. As shown in FIGS. 7A-7D, HeLa cell S-100 depleted of cytochrome c using the monoclonal anti-cytochrome c antibody lost the dATP-dependent activation of CPP32 and the ability to induce DNA fragmentation in the added nuclei (FIGS. 7A and 7C, lanes 3 and 4). Adding back either the purified Apaf-2 from HeLa cells or the commercial cytochrome c from bovine heart or rat liver to the immunodepleted extracts restored the dATP-dependent activation of CPP32 and DNA fragmentation (FIGS. 7A and 7C, lanes 5-10). The reconstitution of cytochrome c dependent-activation of CPP32 was evident with the addition of 0.01 μg (33 nM) of purified cytochrome c to the cytochrome c-depleted extracts (FIG. 7B).\nCPP32 was translated and purified as described above. Aliquot of 3 μl of the in vitro translated CPP32 was incubated with the indicated protein fraction, nucleotides, and 1 mM additional MgCl2 at 30° C. for 1 hour in a final volume of 20 μl of buffer A. At the end of the incubation, 7 μl of 4×SDS sample buffer was added to each reaction. After boiling for 3 min, each sample was subjected to a 15% SDS-polyacrylamide gel electrophoresis (SDS-PAGE). The gel was transferred to a nitrocellulose filter which was subsequently exposed to a Kodak X-OMAT AR X-ray film (Eastman Kodak, Rochester, N.Y.) for 16 hr at room temperature. […]"}, "[2]": {"system": "hamster liver nuclei", "test": "Reconstitution of DNA fragmentation and nuclear morphological change in HeLa S-100 immunodepleted of cytochrome c", "format": "biochemical", "description": "as §1\nTo rule out the possibility that the Apaf-2 activity is due to a minor contaminating protein that co-purified with cytochrome c, an immunodepletion experiment was carried out using a monoclonal antibody against rat cytochrome c. This monoclonal antibody cross-reacts with purified Apaf-2. […]"}, "[3]": {"conditions": "added to cytochrome c-depleted extracts"}}, "data": [{"substance": "Apaf-2: 15 kDa factor bound to phosphocellulose column, purified from HeLa S-100, identified as human cytochrome c", "values": [{"measurement": "restoration of dATP-dependent activation of CPP32", "setting": "[1]; 0.2 μg added to immunodepleted HeLa S-100, 1 mM dATP", "value": "restored"}, {"measurement": "amount at which reconstitution of CPP32 activation was evident", "setting": "[1]; [3]", "value": 0.01, "unit": "µg"}, {"measurement": "concentration at which reconstitution of CPP32 activation was evident", "setting": "[1]; [3]", "value": 33, "unit": "nM"}, {"measurement": "recovered control activity (p20 cleaved product vs HeLa S-100)", "setting": "[1]; addition of 0.3 μg", "value": "more than 100%"}, {"measurement": "restoration of DNA fragmentation", "setting": "[2]; 1 μg added to immunodepleted HeLa S-100, 1 mM dATP", "value": "restored"}, {"measurement": "nuclear morphological change (DAPI)", "setting": "[2]; immunodepleted S-100 supplemented with Apaf-2, 1 mM dATP", "value": "accompanied by the morphological change in the co-incubated nuclei that is characteristic of apoptosis"}]}]}
